Source: patent EP4567035A1, “NOVEL COMPOUND AS HYPOXIA-INDUCIBLE FACTOR 1(HIF-1) INHIBITOR OR VASCULAR ENDOTHELIAL GROWTH FACTOR (VEGF) INHIBITOR, AND PHARMACEUTICAL COMPOSITION COMPRISING SAME” (Nextgen Bioscience Co., Ltd., priority 2022, dated 2024)
Like-named read-outs stand apart in the source and are kept apart here.

Key:
[1] = biological target: T1, HIF-1α (Homo sapiens, UniProt Q16665); test: Analysis of HIF-1α protein expression (Western blot) in ARPE-19 cells under mixed hypoxic condition; type: cell-based; settings: concentration range at which HIF-1α expression is reduced by 50% vs untreated control
T1 construct: endogenous in cells; host or cells: ARPE-19 (ATCC CRL-2302)
How it was run: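 ARPE-19 cells were pretreated 16 h or 2 h with compound (0.1 nM–10 µM, serum-free DMEM/F12), then held 1 h or 24 h in mixed hypoxia (1% O2 plus CoCl2). HIF-1α was quantified by Western blot against β-actin; the concentration range giving ≥50% reduction vs untreated control was reported.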

[2] = tested on: VEGF; test: Evaluation of VEGF protein secretion level (Human VEGF ELISA) in ARPE-19 cell medium under hypoxic conditions; type: cell-based
Method: ARPE-19 cells (Human retinal pigment epithelial cells, ATCC CRL-2302) were cultured in DMEM/F12 (LM002-08, Welgene) medium containing 10% fetal bovine serum (FBS, 16000-044, Gibco) in an incubator at 37°C with 5% carbon dioxide. When the cells grew sufficiently, they were cultured in experimental culture dishes for protein isolation and medium supernatant acquisition.
Cells were detached from the culture dish using TrypLE™ Express (Gibco). After centrifugation at 1000 rpm for 3 minutes, the supernatant was removed. The cells were counted and seeded into new culture dishes. Normoxic conditions were maintained by culturing the cells in a 37°C incubator with 5% carbon dioxide, and hypoxic conditions were maintained by culturing the cells in a hypoxic incubator with 1% oxygen, 5% carbon dioxide, and 94% nitrogen gas.
The expression of the downstream gene, angiogenesis inducer VEGF, is regulated by HIF-1α, a major transcription factor under hypoxic conditions, and the level of secreted VEGF protein can be quantitatively confirmed through ELISA (Enzyme Linked Immunosorbent Assay, Human VEGF Quantikine ELISA Kit, R&D systems). For this purpose, the following experiment was conducted.
The compounds of each Example were diluted to 0.1 nM, 1 nM, 3 nM, 10 nM, 30 nM, 100 nM, 300 nM, 1 µM and 10 µM in DMEM/F12 medium containing 1% fetal bovine serum, pretreated for 2 hours, and cultured for 24 hours under hypoxic conditions to obtain the cell medium supernatant. The supernatant was centrifuged at 1000 rpm for 3 minutes, and a specific amount was treated with a VEGF ELISA assay kit and the absorbance value was measured at 450 nm to quantitatively confirm the level of VEGF protein (see Table 1 below).
Based on the results of secreted VEGF protein expression levels in cell media treated with compounds diluted at concentrations ranging from 10 µM to 0.1 nM, the concentration range of the compound at which the secreted VEGF protein level was reduced by 50% or less compared to the untreated control group was derived.

[3] = mixed hypoxic condition (1% oxygen + CoCl2) for 1 hour, read-out: IC50 HIF-1α Hypoxia (1 hour)
[4] = ARPE-19 cells, pretreated 2 hours, 24 hours hypoxic conditions, secreted VEGF in medium supernatant by ELISA, concentration range reducing VEGF by 50% vs untreated control, read-out: IC50 VEGF
[5] = values marked * in the table, mixed hypoxic condition (1% oxygen + CoCl2) for 24 hours, read-out: IC50 HIF-1α, Hypoxia(24h)
[6] = ARPE-19 cells, pretreated 2 hours, 24 hours hypoxic conditions, ELISA, read-out: concentration at which the secreted VEGF protein level was suppressed to less than 50%
[7] = Experimental Example 2 (HIF-1α Western blot), read-out: concentration at which the expression level of VEGF was suppressed to less than 50%

T1 sequence (Q16665 whole entry): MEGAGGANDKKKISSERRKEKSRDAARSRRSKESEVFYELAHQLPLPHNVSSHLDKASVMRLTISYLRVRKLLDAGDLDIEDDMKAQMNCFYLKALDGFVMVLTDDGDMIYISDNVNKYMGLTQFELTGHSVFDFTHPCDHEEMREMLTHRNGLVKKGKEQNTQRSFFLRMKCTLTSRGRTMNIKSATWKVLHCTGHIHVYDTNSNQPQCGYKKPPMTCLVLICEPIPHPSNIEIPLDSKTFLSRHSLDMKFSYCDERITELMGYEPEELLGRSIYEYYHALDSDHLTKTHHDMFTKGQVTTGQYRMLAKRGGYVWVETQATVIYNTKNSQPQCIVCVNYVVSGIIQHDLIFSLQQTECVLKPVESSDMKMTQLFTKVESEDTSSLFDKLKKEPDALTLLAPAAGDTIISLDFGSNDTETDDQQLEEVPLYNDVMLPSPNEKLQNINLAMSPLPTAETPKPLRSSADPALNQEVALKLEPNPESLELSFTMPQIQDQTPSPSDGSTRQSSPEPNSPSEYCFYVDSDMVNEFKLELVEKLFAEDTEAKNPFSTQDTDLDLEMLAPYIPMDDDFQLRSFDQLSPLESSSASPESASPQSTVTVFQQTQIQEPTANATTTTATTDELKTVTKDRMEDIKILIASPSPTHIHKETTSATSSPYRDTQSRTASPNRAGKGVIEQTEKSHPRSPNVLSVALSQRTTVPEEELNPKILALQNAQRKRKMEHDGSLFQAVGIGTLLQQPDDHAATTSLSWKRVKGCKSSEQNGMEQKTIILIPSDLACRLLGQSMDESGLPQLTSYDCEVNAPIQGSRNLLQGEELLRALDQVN

Row | DC50 [1, 3] [nM] | IC50 [2, 4] [nM] | DC50 [1, 5] [nM] | IC50 [2, 6] [nM] | IC50 [2, 7] [nM] | Compound
1 | 100 to 1000 | 100 to 1000 |  |  |  | O=C(NCc1cc(F)cc(-c2ccco2)c1)c1ncnc2nc(C3CCCC3)[nH]c12 [Example 39, 8-Cyclopentyl-N-(3-fluoro-5-(furan-2-yl)benzyl)-7H-purine-6-carboxamide]
2 |  | 100 to 1000 | < 100 |  |  | O=C(NCc1cc(F)cc(-c2ccsc2)c1)c1ncnc2nc(C3CCCC3)[nH]c12 [Example 40, 8-Cyclopentyl-N-(3-fluoro-5-(thiophen-3-yl)benzyl)-7H-purine-6-carboxamide]
3 | < 100 | 100 to 1000 |  |  |  | O=C(NCc1cc(F)cc(Nc2ccc(C(F)(F)F)cc2)c1)c1ncnc2nc(C3CCCC3)[nH]c12 [Example 41, 8-Cyclopentyl-N-(3-fluoro-5-((4-(trifluoromethyl)phenyl)amino)benzyl)-7H-purine-6-carboxamide]
4 |  | < 100 | < 100 | < 100 | < 100 | Cc1cc(-n2cc(-c3cc(F)cc(CNC(=O)c4ncnc5nc(C6CCCC6)[nH]c45)c3)cn2)ccn1 [Example 42, 8-Cyclopentyl-N-(3-fluoro-5-(1-(2-methylpyridin-4-yl)-1H-pyrazol-4-yl)benzyl)-7H-purine-6-carboxamide]
5 | < 100 | 100 to 1000 |  |  |  | COc1ccc(-n2cc(-c3cc(F)cc(CNC(=O)c4ncnc5nc(C6CCCC6)[nH]c45)c3)cn2)cn1 [Example 43, 8-Cyclopentyl-N-(3-fluoro-5-(1-(6-methoxypyridin-3-yl)-1H-pyrazol-4-yl)benzyl)-7H-purine-6-carboxamide]
6 | < 100 | 100 to 1000 |  |  |  | O=C(NCc1cc(F)cc(-c2cnn(-c3ccc(C(F)(F)F)nc3)c2)c1)c1ncnc2nc(C3CCCC3)[nH]c12 [Example 44, 8-Cyclopentyl-N-(3-fluoro-5-(1-(6-(trifluoromethyl)pyridin-3-yl)-1H-pyrazol-4-yl)benzyl)-7H-purine-6-carboxamide]
7 |  | < 100 | < 100 | < 100 | < 100 | CS(=O)(=O)c1cccc(-n2cc(-c3cc(F)cc(CNC(=O)c4ncnc5nc(C6CCCC6)[nH]c45)c3)cn2)c1 [Example 45, 8-Cyclopentyl-N-(3-fluoro-5-(1-(3-(methylsulfonyl)phenyl)-1H-pyrazol-4-yl)benzyl)-7H-purine-6-carboxamide]
8 |  | 100 to 1000 | < 100 |  |  | O=C(NCc1cc(F)cc(-c2cnn(-c3cccc(F)c3)c2)c1)c1ncnc2nc(C3CCCC3)[nH]c12 [Example 46, 8-Cyclopentyl-N-(3-fluoro-5-(1-(3-fluorophenyl)-1H-pyrazol-4-yl)benzyl)-7H-purine-6-carboxamide]
9 |  | < 100 | < 100 | < 100 | < 100 | O=C(NCc1cc(F)cc(-c2cnn(-c3ccc(F)nc3)c2)c1)c1ncnc2nc(C3CCCC3)[nH]c12 [Example 47, 8-Cyclopentyl-N-(3-fluoro-5-(1-(6-fluoropyridin-3-yl)-1H-pyrazol-4-yl)benzyl)-7H-purine-6-carboxamide]
10 | < 100 | 1000 to 10000 |  |  |  | O=C(NCc1cc(F)cc(-c2cnn(-c3ccc(I)cn3)c2)c1)c1ncnc2nc(C3CCCC3)[nH]c12 [Example 48, 8-Cyclopentyl-N-(3-fluoro-5-(1-(5-iodopyridin-2-yl)-1H-pyrazol-4-yl)benzyl)-7H-purine-6-carboxamide]
11 | < 100 | 1000 to 10000 |  |  |  | O=C(O)c1cccc(-n2cc(-c3cc(F)cc(CNC(=O)c4ncnc5nc(C6CCCC6)[nH]c45)c3)cn2)c1 [Example 49, 3-(4-(3-((8-Cyclopentyl-7H-purine-6-carboxamido)methyl)-5-fluorophenyl)-1H-pyrazol-1-yl)benzoic acid]
12 |  | < 100 | < 100 | < 100 | < 100 | N#Cc1ccc(-n2cc(-c3cc(F)cc(CNC(=O)c4ncnc5nc(C6CCCC6)[nH]c45)c3)cn2)cc1 [Example 50, N-(3-(1-(4-cyanophenyl)-1H-pyrazol-4-yl)-5-fluorobenzyl)-8-cyclopentyl-7H-purine-6-carboxamide]
